Test in all cases: relative viability (nuclei count vs DMSO), 5 days (fraction); higher = more cells survive
Compound in experiment [1]: CO[C@@H]1[C@H](N(C)C(=O)c2ccccc2)C[C@H]2O[C@]1(C)n1c3ccccc3c3c4c(c5c6ccccc6n2c5c31)C(=O)NC4 [Midostaurin] + CC(=O)c1c(C)c2cnc(Nc3ccc(N4CCNCC4)cn3)nc2n(C2CCCC2)c1=O [Palbociclib] (partner 0.5 µM)
The method in brief:
(§1)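 Relative viability was taken as the ratio of nuclei in treated wells to nuclei in vehicle wells. Lung cancer cell lines in 1536-well plates received compounds by pin tool one day after seeding, either one drug alone or a fixed anchor-drug dose plus five library-drug doses (not always all listed) in √10 steps. Nuclei were counted on 4× images after 5 days of treatment, and values are medians of duplicate plates.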

Compound in the experiment “Midostaurin + Bortezomib”: CO[C@@H]1[C@H](N(C)C(=O)c2ccccc2)C[C@H]2O[C@]1(C)n1c3ccccc3c3c4c(c5c6ccccc6n2c5c31)C(=O)NC4 [Midostaurin] + CC(C)C[C@H](NC(=O)[C@H](Cc1ccccc1)NC(=O)c1cnccn1)B(O)O [Bortezomib] (partner 0.002 µM)
Put shortly:
as §1

Compound in the experiment “Midostaurin + Crizotinib”: CO[C@@H]1[C@H](N(C)C(=O)c2ccccc2)C[C@H]2O[C@]1(C)n1c3ccccc3c3c4c(c5c6ccccc6n2c5c31)C(=O)NC4 [Midostaurin] + C[C@@H](Oc1cc(-c2cnn(C3CCNCC3)c2)cnc1N)c1c(Cl)ccc(F)c1Cl [Crizotinib] (partner 1 µM)
Put shortly:
as §1

Compound in experiment [2]: COc1cc(-c2nn([C@H]3CC[C@H](N4CCN(C(C)=O)CC4)CC3)c3ncnc(N)c23)ccc1NC(=O)c1cc2ccccc2n1C + CC(C)C[C@H](NC(=O)[C@H](Cc1ccccc1)NC(=O)c1cnccn1)B(O)O [Bortezomib] (partner 0.002 µM)
Put shortly:
as §1

Compound in experiment [3]: COc1cc(-c2nn([C@H]3CC[C@H](N4CCN(C(C)=O)CC4)CC3)c3ncnc(N)c23)ccc1NC(=O)c1cc2ccccc2n1C + CS(=O)(=O)N1CCN(Cc2cc3nc(-c4cccc5[nH]ncc45)nc(N4CCOCC4)c3s2)CC1 [Pictilisib] (partner 1 µM)
The method in brief:
as §1

In the case of NCI-H650, the relative viability in experiment [1] (first compound 0.01 µM) was 0.347; in experiment [1] (first compound 0.03162 µM), 0.34; in experiment [1] (first compound 0.1 µM), 0.318; in experiment [1] (first compound 0.3162 µM), 0.313; with Midostaurin + Bortezomib (first compound 0.01 µM) it was 0.635; with Midostaurin + Bortezomib (first compound 0.03162 µM) it was 0.783. Moreover, the relative viability with Midostaurin + Bortezomib (first compound 0.1 µM) was 0.734; with Midostaurin + Bortezomib (first compound 0.3162 µM), 0.625; with Midostaurin + Crizotinib (first compound 0.01 µM) it was 0.574; in the experiment with Midostaurin + Crizotinib (first compound 0.03162 µM) it was 0.748; with Midostaurin + Crizotinib (first compound 0.1 µM), 0.773; with Midostaurin + Crizotinib (first compound 0.3162 µM), 0.444. Further, the relative viability in experiment [2] (first compound 0.0128 µM) amounted to 1.17; in experiment [2] (first compound 0.04048 µM), 1.23; in experiment [2] (first compound 0.128 µM), 0.848; in experiment [2] (first compound 1.28 µM) it was 0.867; in experiment [3] (first compound 0.0128 µM), 0.944; in experiment [3] (first compound 0.04048 µM), 0.96. The relative viability in experiment [3] (first compound 0.128 µM) amounted to 0.944; in experiment [3] (first compound 1.28 µM) it was 0.866.

Regarding NCI-H1650, the relative viability in experiment [1] (first compound 0.01 µM) was found to be 0.297; in experiment [1] (first compound 0.03162 µM), 0.409; in experiment [1] (first compound 0.1 µM) it was 0.343; in experiment [1] (first compound 0.3162 µM), 0.522; with Midostaurin + Bortezomib (first compound 0.01 µM), 0.214; with Midostaurin + Bortezomib (first compound 0.03162 µM), 0.227. The relative viability with Midostaurin + Bortezomib (first compound 0.1 µM) was determined as 0.206; with Midostaurin + Bortezomib (first compound 0.3162 µM) it was 0.213; in the experiment with Midostaurin + Crizotinib (first compound 0.01 µM), 1.06; with Midostaurin + Crizotinib (first compound 0.03162 µM) it was 1.06; in the experiment with Midostaurin + Crizotinib (first compound 0.1 µM) it was 1.03; with Midostaurin + Crizotinib (first compound 0.3162 µM) it was 0.702. Moreover, the relative viability worked out at 0.225 in experiment [2] (first compound 0.0128 µM); 0.179 in experiment [2] (first compound 0.04048 µM); 0.211 in experiment [2] (first compound 0.128 µM); 0.205 in experiment [2] (first compound 1.28 µM); 0.548 in experiment [3] (first compound 0.0128 µM); 0.651 in experiment [3] (first compound 0.04048 µM). Further, the values for the relative viability in experiment [3] (first compound 0.128 µM) and in experiment [3] (first compound 1.28 µM) were 0.513 and 0.547, respectively.

Take NCI-H2085: the relative viability in experiment [1] (first compound 0.01 µM) was 0.497; in experiment [1] (first compound 0.03162 µM) it was 0.467; in experiment [1] (first compound 0.1 µM), 0.491; in experiment [1] (first compound 0.3162 µM) it was 0.494; in the experiment with Midostaurin + Bortezomib (first compound 0.01 µM), 0.968; with Midostaurin + Bortezomib (first compound 0.03162 µM) it was 0.963. Further, the relative viability in the experiment with Midostaurin + Bortezomib (first compound 0.1 µM) was 1.08; in the experiment with Midostaurin + Bortezomib (first compound 0.3162 µM), 0.946; in the experiment with Midostaurin + Crizotinib (first compound 0.01 µM), 0.769; with Midostaurin + Crizotinib (first compound 0.03162 µM), 0.805; with Midostaurin + Crizotinib (first compound 0.1 µM), 0.814; with Midostaurin + Crizotinib (first compound 0.3162 µM), 0.582. The relative viability in experiment [2] (first compound 0.0128 µM) worked out at 1.05; in experiment [2] (first compound 0.04048 µM), 1.06; in experiment [2] (first compound 0.128 µM) it was 1.12; in experiment [2] (first compound 1.28 µM), 1.14; in experiment [3] (first compound 0.0128 µM), 0.532; in experiment [3] (first compound 0.04048 µM), 0.484. The relative viability in experiment [3] (first compound 0.128 µM) is 0.381; in experiment [3] (first compound 1.28 µM), 0.458.

As for LC-2-ad, the relative viability in experiment [1] (first compound 0.01 µM) came to 0.482; in experiment [1] (first compound 0.03162 µM), 0.53; in experiment [1] (first compound 0.1 µM) it was 0.536; in experiment [1] (first compound 0.3162 µM), 0.566; with Midostaurin + Bortezomib (first compound 0.01 µM), 1.03; with Midostaurin + Bortezomib (first compound 0.03162 µM), 0.979. The relative viability worked out at 0.995 with Midostaurin + Bortezomib (first compound 0.1 µM); 1 with Midostaurin + Bortezomib (first compound 0.3162 µM); 0.469 with Midostaurin + Crizotinib (first compound 0.01 µM); 0.428 with Midostaurin + Crizotinib (first compound 0.03162 µM); 0.485 with Midostaurin + Crizotinib (first compound 0.1 µM); 0.483 in the experiment with Midostaurin + Crizotinib (first compound 0.3162 µM). In addition, the relative viability in experiment [2] (first compound 0.0128 µM) is 1.09; in experiment [2] (first compound 0.04048 µM), 1.12; in experiment [2] (first compound 0.128 µM), 1.06; in experiment [2] (first compound 1.28 µM), 1.01; in experiment [3] (first compound 0.0128 µM), 0.606; in experiment [3] (first compound 0.04048 µM) it was 0.009. The relative viability in experiment [3] (first compound 0.128 µM) is 0.455; in experiment [3] (first compound 1.28 µM) it was 0.311.

For the cell line COR-L 105, the relative viability worked out at 0.414 in experiment [1] (first compound 0.01 µM); 0.416 in experiment [1] (first compound 0.03162 µM); 0.396 in experiment [1] (first compound 0.1 µM); 0.4 in experiment [1] (first compound 0.3162 µM); 0.823 in the experiment with Midostaurin + Bortezomib (first compound 0.01 µM); 0.804 in the experiment with Midostaurin + Bortezomib (first compound 0.03162 µM). Moreover, the relative viability in the experiment with Midostaurin + Bortezomib (first compound 0.1 µM) came to 0.668; with Midostaurin + Bortezomib (first compound 0.3162 µM), 0.499; with Midostaurin + Crizotinib (first compound 0.01 µM), 0.835; with Midostaurin + Crizotinib (first compound 0.03162 µM), 0.738; with Midostaurin + Crizotinib (first compound 0.1 µM), 0.692; in the experiment with Midostaurin + Crizotinib (first compound 0.3162 µM), 0.698. Besides, the relative viability was 0.73 in experiment [2] (first compound 0.0128 µM); 0.854 in experiment [2] (first compound 0.04048 µM); 0.657 in experiment [2] (first compound 0.128 µM); 0.386 in experiment [2] (first compound 1.28 µM); 0.417 in experiment [3] (first compound 0.0128 µM); 0.427 in experiment [3] (first compound 0.04048 µM). The relative viability in experiment [3] (first compound 0.128 µM) amounted to 0.321; in experiment [3] (first compound 1.28 µM) it was 0.243.

As to NCI-H1355, the relative viability came out at 0.409 in experiment [1] (first compound 0.01 µM); 0.429 in experiment [1] (first compound 0.03162 µM); 0.443 in experiment [1] (first compound 0.1 µM); 0.468 in experiment [1] (first compound 0.3162 µM); 1.13 with Midostaurin + Bortezomib (first compound 0.01 µM); 1.16 with Midostaurin + Bortezomib (first compound 0.03162 µM). The relative viability amounted to 1.31 in the experiment with Midostaurin + Bortezomib (first compound 0.1 µM); 1.26 with Midostaurin + Bortezomib (first compound 0.3162 µM); 0.965 in the experiment with Midostaurin + Crizotinib (first compound 0.01 µM); 1.01 with Midostaurin + Crizotinib (first compound 0.03162 µM); 0.987 with Midostaurin + Crizotinib (first compound 0.1 µM); 1 with Midostaurin + Crizotinib (first compound 0.3162 µM). Moreover, the relative viability in experiment [2] (first compound 0.0128 µM) turned out to be 1.4; in experiment [2] (first compound 0.04048 µM) it was 1.23; in experiment [2] (first compound 0.128 µM), 1.22; in experiment [2] (first compound 1.28 µM), 1.15; in experiment [3] (first compound 0.0128 µM), 0.584; in experiment [3] (first compound 0.04048 µM), 0.295. Besides, the relative viability in experiment [3] (first compound 0.128 µM) amounted to 0.412; in experiment [3] (first compound 1.28 µM), 0.406.

On to H3255, for which the relative viability in experiment [1] (first compound 0.01 µM) is 0.317; in experiment [1] (first compound 0.03162 µM), 0.327; in experiment [1] (first compound 0.1 µM) it was 0.333; in experiment [1] (first compound 0.3162 µM), 0.342; in the experiment with Midostaurin + Bortezomib (first compound 0.01 µM) it was 0.857; in the experiment with Midostaurin + Bortezomib (first compound 0.03162 µM), 0.832. Further, the relative viability with Midostaurin + Bortezomib (first compound 0.1 µM) is 0.731; in the experiment with Midostaurin + Bortezomib (first compound 0.3162 µM) it was 0.789; in the experiment with Midostaurin + Crizotinib (first compound 0.01 µM) it was 0.829; in the experiment with Midostaurin + Crizotinib (first compound 0.03162 µM) it was 0.718; with Midostaurin + Crizotinib (first compound 0.1 µM) it was 0.937; with Midostaurin + Crizotinib (first compound 0.3162 µM), 0.892. Moreover, the relative viability was 0.92 in experiment [2] (first compound 0.0128 µM); 0.765 in experiment [2] (first compound 0.04048 µM); 0.721 in experiment [2] (first compound 0.128 µM); 0.779 in experiment [2] (first compound 1.28 µM); 0.523 in experiment [3] (first compound 0.0128 µM); 0.408 in experiment [3] (first compound 0.04048 µM). The relative viability in experiment [3] (first compound 0.128 µM) is 0.49; in experiment [3] (first compound 1.28 µM) it was 0.278.

(Values after the supplement of paper PMC10307832.)
